Source: US20150258104A1, “USE OF N[…] THE TREATMENT OF PAIN” (DemeRX, Inc., priority 2014, published 2015)

Assays:
[1] = Cold pressor test in healthy volunteers; format: in vivo, human
Protocol: Analgesic effect was assessed based on duration of hand immersion in ice water and on visual analog scale (VAS) pain scores upon hand removal from the water bath.
(§1) Safety and tolerability of noribogaine were tested in the group of volunteers from Example 1. […] Safety evaluations included clinical monitoring, recording of adverse events (AEs), safety laboratory tests, vital signs, ECG telemetry from −2 h to 6 h after dosing, and 12-lead electrocardiograms (ECGs) up to 216 hours post-dosing.

[2] = Pharmacokinetics in opioid-dependent patients, Phase IB study, single dose; conditions: human, serum; for half-life / Vd/F: opioid-dependent patients
[3] = Efficacy in opioid-dependent patients: time to resumption of OST and withdrawal scales (COWS, SOWS, OOWS); format: in vivo, human
Protocol: The efficacy of noribogaine in humans was evaluated in opioid-dependent participants in a randomized, placebo-controlled, double-blind trial. […] See U.S. application Ser. No. 14/214,157, filed Mar. 14, 2014 and Ser. No. 14/346,655, filed Mar. 21, 2014, which are incorporated herein by reference in their entireties.
Three cohorts of nine (9) subjects (6 administered noribogaine and 3 administered placebo in each cohort) were evaluated for tolerability, pharmacokinetics, and efficacy. Cohort 1 received a single dose of 60 mg noribogaine or placebo. Cohort 2 received a single dose of 120 mg noribogaine or placebo. Cohort 3 received a single dose of 180 mg noribogaine or placebo. […] Headaches were frequent in the placebo and 60 mg noribogaine treatment groups, but were attenuated in the 120 mg and 180 mg dose groups.
Patients were evaluated based on the Clinical Opiate Withdrawal Scale (COWS), Subjective Opiate Withdrawal Scale (SOWS), and Objective Opiate Withdrawal Scale (OOWS) scoring systems over the period of time between administration of noribogaine (or placebo) until resumption of OST. These scales are outlined in Guidelines for the Psychosocially Assisted Pharmacological Treatment of Opioid Dependence, World Health Organization, Geneva (2009), Annex 10, which is incorporated herein by reference in its entirety. The scales measure the intensity of withdrawal symptoms, based on clinical, subjective, and objective indicia.

[4] = Treatment emergent adverse events in opioid-dependent patients
[5] = Safety and tolerability of noribogaine in healthy humans; format: in vivo, human
Protocol: (§2) Pulse oximetry and capnography data were collected continuously using a GE Carescape B650 monitoring system from 2 hours prior to dosing and until six hours after dosing, and thereafter at 12, 24, 48 and 72 hours post-dosing. […] Pupillary miosis was assessed by pupillometry.
as §1

[6] = Pharmacokinetics of noribogaine in healthy volunteers, ascending single oral dose (plasma); conditions: mean, n = 6; for CL/F: fasted, plasma
[7] = Pupillometry (pupillary miosis) in healthy volunteers; format: in vivo, human; conditions: 3-60 mg, p>0.9
Protocol: as §2
Summary statistics (means, standard deviations, and coefficients of variation) were determined for each dose group for safety laboratory test data, ECG and pharmacokinetic parameters, and pharmacodynamic variables. Categorical variables were analysed using counts and percentages. Dose-proportionality of AUC and Cmax was assessed using linear regression. The effect of dose on pharmacodynamic parameter values over time was assessed using two-factor analysis of variance (ANOVA). Pairwise comparisons (with Tukey-Kramer adjustment) between each dose group to the placebo were conducted at each time point using the least squares estimates obtained from the ANOVA, using SAS Proc Mixed (SAS ver 6.0).

[8] = 60 mg, mean ± SD, Cohort 1 (60 mg)
[9] = 120 mg, range, Cohort 2 (120 mg)
[10] = 180 mg, range, Cohort 3 (180 mg)
[11] = metabolite in plasma after single oral 30 mg noribogaine
[12] = metabolite in plasma after single oral 60 mg noribogaine

In the case of `CC[C@H]1CC2C[C@H]3c4[nH]c5ccc(O)cc5c4CCN(C2)C13` [noribogaine], the “duration of hand immersion, each dose group versus placebo (ANOVA)” value ([1]; ice water, p>0.9) is reported as “no statistically significant differences”, the “VAS pain scores, each dose group versus placebo (ANOVA)” value ([1]; upon hand removal, p=0.17) is reported as “no statistically significant differences” and the AUC ([2]; 60 mg) is reported as 1120 to 2550 ng·h/mL. The AUC(0-t) ([2]; 60 mg) was 1090 to 2530 ng·h/mL, the Cmax ([2]; 60 mg) was 41.3 to 113 ng/mL and the Tmax ([2]; 60 mg) was 2.5 to 5 h. For the same molecule, the half-life [2, 8] was 29.3 ± 7.28 h, the half-life ([2]; 60 mg, range, Cohort 1 (60 mg)) was 18.3 to 37.3 h and the Vd/F [2, 8] was 1440 ± 854 L. For the same molecule, the Vd/F ([2]; 60 mg, range, Cohort 1 (60 mg)) was 620 to 2770 L, the AUC ([2]; 120 mg) was 1600 to 5770 ng·h/mL and the AUC(0-t) ([2]; 120 mg) was 1560 to 5640 ng·h/mL. It also gave a Cmax ([2]; 120 mg) of 139 to 230 ng/mL, a Tmax ([2]; 120 mg) of 0.98 to 4.02 h and a half-life [2, 9] of 21.9 to 48.3 h. For the same molecule, the Vd/F [2, 9] was 824 to 5240 L, the AUC ([2]; 180 mg) was 3730 to 12300 ng·h/mL and the AUC(0-t) ([2]; 180 mg) was 3720 to 10400 ng·h/mL. The Cmax ([2]; 180 mg) was 205 to 338 ng/mL, the Tmax ([2]; 180 mg) was 3 to 8 h and the half-life [2, 10] was 19.3 to 34.9 h. The Vd/F [2, 10] was 581 to 1610 L, the “withdrawal symptoms (COWS, OOWS, SOWS), first six hours after dosing” value ([3]; 120 mg) was “fewer withdrawal symptoms than the other patients” and the “time to resumption of OST, compared with untreated patients” value ([3]; 180 mg, also longer than 60 mg group) was over 7 h. For the same molecule, the “withdrawal symptoms (COWS, OOWS, SOWS), noribogaine versus placebo” value ([3]; 60, 120, 180 mg) was “Patients administered placebo generally experienced more withdrawal symptoms than patients who were administered noribogaine”, the headaches ([4]; 60 mg treatment group) was “frequent” and the headaches ([4]; 120 mg and 180 mg dose groups) was “attenuated”. For the same molecule, the adverse events reported ([5]; 3 mg dose group, by two subjects) was “five”, the adverse events reported ([5]; 10 mg dose group, single subject) was “one” and the adverse events reported ([5]; 30 mg dose group, single subject) was “one”. For the same molecule, the “intensity of adverse events” value ([5]; all dose groups, all resolved prior to study completion) was “mild-moderate”, the CL/F ([6]; single oral 3 mg) was 41.4 L/h and the CL/F ([6]; single oral 10 mg) was 42.3 L/h. For the same molecule, the CL/F ([6]; single oral 30 mg) was 46.9 L/h, the CL/F ([6]; single oral 60 mg) was 34.0 L/h and the “pupil diameter, each dose group versus placebo (ANOVA, baseline adjusted)” value [7] was “no statistically significant differences”.
For `CC[C@H]1C[C@@H]2C[C@H]3c4[nH]c5ccc(OC6OC(C(=O)O)C(O)C(O)C6O)cc5c4CCN(C2)[C@@H]13` (stereo partly shown) [noribogaine glucuronide], the AUC0-216 [6, 11] was 25.7 ng·h/mL, the “AUC0-∞” value [6, 11] was 25.8 ng·h/mL and the Cmax [6, 11] was 1.8 ng/mL. It also gave a Tmax [6, 11] of 3.0 h, a t1/2 [6, 11] of 20.6 h and an AUC0-216 [6, 12] of 65.0 ng·h/mL. The “AUC0-∞” value [6, 12] was 67.1 ng·h/mL, the Cmax [6, 12] was 4.1 ng/mL and the Tmax [6, 12] was 3.8 h. The t1/2 [6, 12] was 23.1 h.
